Measurements from patent US4416874A, “Injectable compositions of BBM-928A” (Bristol-Myers Company, priority 1982, dated 1983).
Values after ≈ are worked out from the molar mass of the structure shown. Read-outs that look alike come from different tables or passages of the source.

Tests used:
[1] = Solubility in solvents and pharmaceutical vehicles; assay type: physicochemical
Experimental: Is thus evident that due to the hydrolytic sensitivity and insolubility of BBM-928A that a formidable pharmaceutical formulation problem is presented for the intravenous use thereof.
The disodium salt of BBM-928A has been prepared by dissolving BBM-928A in aqueous sodium hydroxide at pH 10.5, washing with chloroform, and lyophilizing the aqueous solution. Its solubility in water is 0.5 mg/ml. In the dry state disodium BBM-928A gradually decomposes to BBM-928B and BBM-928C at higher temperatures. The following Table exemplifies this:
Limited solubility in the following solvents was observed.
(§1) The preferred composition of the present invention employs trisodium orthophosphate as the base for solubilization of BBM-928A. Solutions having concentrations of BBM-928A of from 1 to 5 mg per milliliter are readily prepared when 0.65 parts by weight of trisodium orthophosphate per part by weight of BBM-928A are employed. Such solutions have a pH within the range of 11.0 to 11.5. If an amount of the base is employed which is insufficient to provide a pH value of pH 11.0 the desired level of solubilization of the BBM-928A is not achieved. At pH values in excess of 11.5 decomposition through hydrolysis of the BBM-928A becomes so extensive as to result in loss of utility of the solutions. […] Such solutions should not be kept for longer periods but should be prepared extemporaneously prior to use. Conventional aseptic techniques conforming to the criteria of both good laboratory practices and good manufacturing practices should be employed in preparing the compositions of the present invention.

[2] = chloroform and methylene chloride; cited from earlier work
[3] = Stability of intravenous solutions at pH 11.0 to 11.5 (high performance liquid chromatography); assay type: physicochemical; conditions: intravenous solution solubilized by trisodium phosphate
Experimental: as §1, with “Conventional aseptic techniques conforming to the criteria of both good laboratory practices and good manufacturing practices should be employed in preparing the compositions of the present invention.” left out
The resulting bulk powder is then filled into glass vials at the rate of 16.5 mg. per vial (10 mg. BBM-928A), and the vials sealed by a proper closure to maintain the anhydrous sterile condition. […] Each vial is constituted for intravenous injection with the desired quantity of sterile water for injection in an amount of 2 ml. or more per vial (conc. up to 5 mg/ml. and preferably from 1 to 5 mg/ml. of BBM-928A). […]

COc1ccc2nc(C(=O)N[C@@H]3COC(=O)[C@H](C(C)(C)O)N(C)C(=O)CN(C)C(=O)CNC(=O)[C@@H]4[C@@H](OC(C)=O)CC=NN4C(=O)[C@H](NC(=O)c4nc5ccc(OC)cc5cc4O)COC(=O)[C@H](C(C)(C)O)N(C)C(=O)CN(C)C(=O)CNC(=O)[C@@H]4[C@@H](OC(C)=O)CC=NN4C3=O)c(O)cc2c1 [BBM-928A]
solubility ([1]; Aqueous L-arginine 10%, yellow solution with a slight haze): 1000 µg/mL (≈ 701 µM)
solubility ([1]; Ethyl lactate, slight haze): about 1 mg/ml
solubility ([1]; Ethyl levulinate, standing in contact with the solvent overnight): 500 µg/mL (≈ 350 µM)
solubility ([1]; Lactic acid U.S.P.): 1000 µg/mL (≈ 701 µM)
solubility in 22 commonly employed pharmaceutical vehicles ([1]; poloxamer polyols, benzyl alcohol, ethanol, fixed oils, propylene glycol, polyethylene glycol 400, urea, povidone, nicotinamide, dextrose solutions etc.): virtually insoluble
solubility [2]: readily soluble
period of sufficient stability for use following preparation [3]: up to 4 hours
